Measurements taken from patent US20170216401A1, “COMBINATION FOR USE IN A METHOD OF TREATING CANCER” (priority 2014, published 2017).

Columns and labels:
[1] = tested on: human glioma cells HTZ-349 and A-172; assay: cell-mediated tumor cytotoxicity assay, calcein release (CARE-LASS); type: cell-based; settings: PBMC and target cells preincubated 6 days with SD-208, IL-2 and GM-CSF; effector/target 1:100, 1:10, 1:1; 4 hours; FIG. 2
Method: Establishment and culture of primary tumor cell cultures were performed as previously described (Jachimczak et al., 1993). Briefly, tumor specimens were cultivated in Dulbecco's minimum essential medium (DMEM) containing 10% FCS, 1% BME vitamin solution, and 1% MEM nonessential amino acids. HTZ-349 was established as primary cell culture from a patient suffering from glioblastoma multiforme (GBM, Grade IV). A-172 cells were obtained from ATCC (GBM). Peripheral blood mononuclear cells (PBMC) were isolated from venous blood of two healthy donors by standard Ficoll-Hypaque gradient centrifugation (Jachimczak et al., 1993).
PBMC were activated with IL-2 (Proleukin S) and GM-CSF. Immune cell cytotoxicity against the target tumor cells was determined in a calcein-release assay (Lichtenfels et al., 1994) by adding pre-activated PBMC to glioma target cells at an effector/target ratio of 1:100, 1:10 and 1:1. After 4 hours, fluorescence of supernatants was analyzed (Fluoroscan, Germany) and calculated as described (Lichtenfels et al., 1994).

[2] = tested on: TGF-beta signal transduction; settings: p-SMAD2 western blot (Gaspar et al., 2007); cited from earlier work

Fc1ccc(Cl)cc1-c1nc(Nc2ccncc2)c2nccnc2n1 [SD-208]
allogenous cell cytotoxicity against glioma target cells [1]: enhanced | inhibition of TGF-beta signal transduction [2]: inhibits TGF-beta signal transduction in a dose-dependent fashion
